Measured values as given in patent US20250144067A1, “PERSONALIZED STARVATION THERAPY FOR CANCER” (Faeth Therapeutics, Inc., priority 2021, published 2025).
Where a name gives a salt, the structure may show the parent alone. Read-outs that look alike come from different tables or passages of the source. Peptide text beside a SMILES is read from it.

Legend:
[1] = tested on: NCI-H292 lung cancer cells; assay: FDA drug screening, complete media vs cholesterol-free media without statin (TABLE 1); type: cell-based, human
[2] = tested on: NCI-H292 lung cancer cells; assay: FDA drug screening, complete media vs cholesterol-free media with simvastatin (TABLE 2); type: cell-based, human
[3] = Complete minus Cholesterol-free, >0 enhanced anti-cancer activity, about 0 neutral, <0 antagonist
[4] = NCI-H292 cells, cholesterol-free media without statin
[5] = NCI-H292 cells, FDA library drug in cholesterol-free media with simvastatin 0.04 μM
[6] = NCI-H292 cells, FDA library drug in complete media
[7] = complete media vs cholesterol-free media + simvastatin (0.04 μM), >0 enhanced anti-cancer activity, about 0 neutral, <0 antagonist
[8] = Complete minus Cholesterol-free, greater than 0 enhanced anti-cancer activity, about 0 neutral, below 0 antagonist
[9] = NCI-H292 cells, FDA drug library screen, cholesterol-free media without statin
[10] = NCI-H292 cells, FDA drug library screen, complete media
[11] = complete media minus cholesterol-free media + simvastatin, >0 enhanced anti-cancer activity, about 0 neutral, <0 antagonist
[12] = NCI-H292 cells, cholesterol-free media without statin, FDA drug library screen
[13] = NCI-H292 cells, complete media, FDA drug library screen
[14] = complete vs cholesterol-free media, >0 enhanced anti-cancer activity, about 0 neutral, <0 antagonist
[15] = NCI-H292 cells, FDA drug library screen, cholesterol-free media with simvastatin 0.04 μM
[16] = complete vs cholesterol-free media, greater than 0 enhanced anti-cancer activity, about 0 neutral, below 0 antagonists
[17] = NCI-H292 cells, drug in cholesterol-free media with simvastatin 0.04 μM
[18] = NCI-H292 cells, drug in complete media
[19] = complete media minus cholesterol-free media + simvastatin, […]
[20] = Complete minus Cholesterol-free, […]
[21] = NCI-H292 cells in cholesterol-free media without statin
[22] = NCI-H292 cells in complete media
[23] = NCI-H292 cells, cholesterol-free media with simvastatin 0.04 μM, FDA drug library screen (TABLE 2)
[24] = NCI-H292 cells, complete media, FDA drug library screen (TABLE 2)
[25] = complete media minus cholesterol-free media + simvastatin (0.04 μM), >0 enhanced anti-cancer activity, about 0 neutral, <0 antagonist
[26] = Complete minus Cholesterol-free, greater than 0 enhanced anti-cancer activity, about 0 neutral, below 0 antagonists

## Cc1onc(-c2c(F)cccc2Cl)c1C(=O)N[C@@H]1C(=O)N2[C@@H]1SC(C)(C)[C@@H]2C(=O)O [Flucloxacillin sodium]
[1]; [3]
  Difference: −0.29
[1]; [4]
  Cholesterol-free: 1.264
[1]; NCI-H292 cells, complete media
  Complete: 0.9693
[2]; [5]
  Cholesterol-free media + simvastatin (0.04 μM): 1.127
[2]; [6]
  Complete Media: 0.8297
[2]; [7]
  Difference: −0.30

## Clc1ccc(Cn2c(CN3CCCC3)nc3ccccc32)cc1 [Clemizole (hydrochloride)]
[1]; [8]
  Difference: −0.11
[1]; [9]
  Cholesterol-free: 1.125
[1]; [10]
  Complete: 1.013
[2]; NCI-H292 cells, cholesterol-free media with simvastatin 0.04 μM, cell growth value in FDA drug screen
  Cholesterol-free media + simvastatin (0.04 μM): 0.9553
[2]; NCI-H292 cells, complete media, cell growth value in FDA drug screen
  Complete Media: 1.07
[2]; [11]
  Difference: 0.11

## CC[C@]12CCCN3CCc4c(n(c5ccccc45)C(=O)C1)[C@@H]32 [Vinburnine]
[1]; [12]
  Cholesterol-free: 0.8229
[1]; [13]
  Complete: 1.424
[1]; [14]
  Difference: 0.60
[2]; [15]
  Cholesterol-free media + simvastatin (0.04 μM): 1.049
[2]; [10]
  Complete Media: 1.235
[2]; [11]
  Difference: 0.19

## O=C(OCC(O)CO)c1ccccc1Nc1ccnc2cc(Cl)ccc12 (stereo not shown) [Glafenine (hydrochloride)]
[1]
  Cholesterol-free: 1.367
  Complete: 1.255
  Difference: −0.11
[2]
  Cholesterol-free media + simvastatin (0.04 μM): 0.8957
  Complete Media: 0.9245
  Difference: 0.03

## CC(=O)[C@H]1CC[C@H]2[C@@H]3CCC4=CC(=O)CC[C@]4(C)[C@H]3CC[C@]12C [Progesterone]
[1]; [4]
  Cholesterol-free: 1.057
[1]; NCI-H292 cells, complete media
  Complete: 0.6641
[1]; [16]
  Difference: −0.39
[2]; [15]
  Cholesterol-free media + simvastatin (0.04 μM): 1.054
[2]; [10]
  Complete Media: 0.9232
[2]; [7]
  Difference: −0.13

## Cc1cnc(Nc2ccc(OCCN3CCCC3)cc2)nc1Nc1cccc(S(=O)(=O)NC(C)(C)C)c1 [Fedratinib (hydrochloride hydrate)]
[1]; [8]
  Difference: −0.13
[1]; [9]
  Cholesterol-free: 0.469
[1]; [10]
  Complete: 0.341
[2]; [17]
  Cholesterol-free media + simvastatin (0.04 μM): 0.6402
[2]; [18]
  Complete Media: 0.3774
[2]; [7]
  Difference: −0.26

## CNC[C@H](O)[C@@H](O)[C@H](O)[C@H](O)CO.O=C(O)c1ccc2nc(-c3cc(Cl)cc(Cl)c3)oc2c1 [Tafamidis meglumine]
[1]; [3]
  Difference: −0.03
[1]; [12]
  Cholesterol-free: 0.8398
[1]; [13]
  Complete: 0.8088
[2]; [15]
  Cholesterol-free media + simvastatin (0.04 μM): 0.9551
[2]; [11]
  Difference: 0.20

## CCCCCCCCC(=O)NCc1ccc(O)c(OC)c1 [Nonivamide]
[1]; NCI-H292 cells, complete media
  Complete: 1.201
[1]; complete vs cholesterol-free media, […]
  Difference: −0.42
[2]; NCI-H292 cells, cholesterol-free media with simvastatin 0.04 μM, […]
  Cholesterol-free media + simvastatin (0.04 μM): 1.059
[2]; NCI-H292 cells, complete media, […]
  Complete Media: 1.139
[2]; [19]
  Difference: 0.08

## N=C(N)NCCCC[C@@H]1NC(=O)CCSSC[C@@H](C(N)=O)NC(=O)[C@@H]2CCCN2C(=O)[C@H](Cc2c[nH]c3ccccc23)NC(=O)[C@H](CC(=O)O)NC(=O)CNC1=O [Eptifibatide] (HELM PEPTIDE1{[O=C(CCS[*:3])[*:2]].[N=C(N)NCCCC[C@H](N[*:1])C(=O)[*:2]].G.D.W.P.C.[am]}$PEPTIDE1,PEPTIDE1,1:R3-7:R3$$$V2.0)
[1]; [20]
  Difference: −1.01
[1]; [21]
  Cholesterol-free: 1.974
[1]; [22]
  Complete: 0.9607
[2]; [15]
  Cholesterol-free media + simvastatin (0.04 μM): 0.8438
[2]; [10]
  Complete Media: 0.9929
[2]; [19]
  Difference: 0.15

## Estramustine (phosphate sodium)
[1]
  Cholesterol-free: 1.196
  Complete: 0.9487
  Difference: −0.25
[2]
  Cholesterol-free media + simvastatin (0.04 μM): 1.251
  Difference: −0.18

## O=C1NC(=O)C(c2ccccc2)(c2ccccc2)N1 [Phenytoin (sodium)]
[1]; [3]
  Difference: −0.27
[1]; [4]
  Cholesterol-free: 1.197
[1]; NCI-H292 cells, complete media
  Complete: 0.9283
[2]; [23]
  Cholesterol-free media + simvastatin (0.04 μM): 0.8893
[2]; [24]
  Complete Media: 0.8884
[2]; [25]
  Difference: 0.00

## Prednisolone (disodium phosphate)
[1]; [4]
  Cholesterol-free: 1.087
[1]; NCI-H292 cells, complete media
  Complete: 0.6422
[1]; [16]
  Difference: −0.44
[2]; [15]
  Cholesterol-free media + simvastatin (0.04 μM): 0.4379
[2]; [10]
  Complete Media: 0.7375
[2]; [11]
  Difference: 0.30

## N[C@H]1C(O)O[C@H](CO)[C@@H](O)[C@@H]1O (stereo partly shown) [Glucosamine]
[1]; [4]
  Cholesterol-free: 1.17
[1]; NCI-H292 cells, complete media
  Complete: 0.7725
[1]; [16]
  Difference: −0.40
[2]; [5]
  Cholesterol-free media + simvastatin (0.04 μM): 1.916
[2]; [7]
  Difference: −0.77

## OC[C@H]1OC(O)[C@H](O)[C@@H](O)[C@@H]1O (stereo partly drawn) [D-Glucose]
[1]; [3]
  Difference: −0.06
[1]; [12]
  Cholesterol-free: 0.3615
[1]; [13]
  Complete: 0.3017
[2]; [17]
  Cholesterol-free media + simvastatin (0.04 μM): 0.822
[2]; [18]
  Complete Media: 0.5991
[2]; [7]
  Difference: −0.22

## O=C(O)c1ccccc1OP(=O)(O)O [2-(Phosphonooxy)benzoic acid]
[1]; [26]
  Difference: −0.51
[1]; [21]
  Cholesterol-free: 1.515
[1]; [22]
  Complete: 1.005
[2]; [17]
  Cholesterol-free media + simvastatin (0.04 μM): 1.147
[2]; [18]
  Complete Media: 0.9779
[2]; [7]
  Difference: −0.17

## Nc1cc(-c2ccncc2)c[nH]c1=O [Amrinone]
[1]; [26]
  Difference: −0.48
[1]; [21]
  Cholesterol-free: 1.339
[1]; [22]
  Complete: 0.861
[2]; [17]
  Cholesterol-free media + simvastatin (0.04 μM): 1.157
[2]; [18]
  Complete Media: 0.9441
[2]; [7]
  Difference: −0.21

## CC[C@H](C)[C@H](N)C(=O)O [L-Isoleucine]
[1]; [3]
  Difference: 0.06
[1]; [12]
  Cholesterol-free: 1.023
[1]; [13]
  Complete: 1.082
[2]; [15]
  Cholesterol-free media + simvastatin (0.04 μM): 2.302
[2]; [25]
  Difference: −1.28

## CCCc1c2oc(C(=O)O)cc(=O)c2cc2c(=O)cc(C(=O)O)n(CC)c12 [Nedocromil]
[1]; [12]
  Cholesterol-free: 1.678
[1]; [13]
  Complete: 1.893
[1]; [14]
  Difference: 0.22
[2]; [5]
  Cholesterol-free media + simvastatin (0.04 μM): 1.951
[2]; [6]
  Complete Media: 1.336
[2]; [7]
  Difference: −0.61

## CNC(=O)CN(CCN(CCN(CC(=O)[O-])CC(=O)NC)CC(=O)[O-])CC(=O)[O-].O.[Gd+3] [Gadodiamide (hydrate)]
[1]; [20]
  Difference: −0.65
[1]; [21]
  Cholesterol-free: 1.387
[1]; [22]
  Complete: 0.7342
[2]; [15]
  Cholesterol-free media + simvastatin (0.04 μM): 1.113
[2]; [10]
  Complete Media: 0.9905
[2]; complete media vs cholesterol-free media + simvastatin (0.04 μM), […]
  Difference: −0.12

## Cc1ccc(S(=O)(=O)NC(=O)NN2CC3CCCC3C2)cc1 (stereo not shown) [Gliclazide]
[1]; [3]
  Difference: 0.04
[1]; [12]
  Cholesterol-free: 1.079
[1]; [13]
  Complete: 1.122
[2]; [5]
  Cholesterol-free media + simvastatin (0.04 μM): 1.233
[2]; [6]
  Complete Media: 0.9583
[2]; [7]
  Difference: −0.28

## CC(=O)Oc1ccccc1C(=O)O [Aspirin]
[1]; [4]
  Cholesterol-free: 1.474
[1]; NCI-H292 cells, complete media
  Complete: 1.02
[1]; [16]
  Difference: −0.45
[2]; [17]
  Cholesterol-free media + simvastatin (0.04 μM): 1.19
[2]; [18]
  Complete Media: 0.9812
[2]; [7]
  Difference: −0.21

## COCCCOc1cc(C[C@@H](C[C@H](N)[C@@H](O)C[C@H](C(=O)NCC(C)(C)C(N)=O)C(C)C)C(C)C)ccc1OC [Aliskiren]
[1]; [26]
  Difference: −0.67
[1]; [21]
  Cholesterol-free: 1.754
[1]; [22]
  Complete: 1.084
[2]; [5]
  Cholesterol-free media + simvastatin (0.04 μM): 1.326
[2]; [6]
  Complete Media: 0.8268
[2]; [7]
  Difference: −0.50

## N[C@@H](CSCC(=O)O)C(=O)O [Carbocisteine]
[1]; [3]
  Difference: −0.04
[1]; [12]
  Cholesterol-free: 1.486
[1]; [13]
  Complete: 1.447
[2]; [23]
  Cholesterol-free media + simvastatin (0.04 μM): 0.934
[2]; [24]
  Complete Media: 0.9494
[2]; [25]
  Difference: 0.02
